Data reported in ChEMBL document CHEMBL1122692, “Catechol derivatives of 6-aminobenzocycloheptene: assessment of dopaminergic effects” (1984).

Key:
Format in all cases: functional
Felis catus [1] = assay: Compound was evaluated for the biological activity (pressure) in anesthetized cats at a dose of 10 ug/kg
Felis catus [2] = assay: Compound was evaluated for the biological activity (pressure) in anesthetized cats at a dose of 20 ug/kg
Felis catus [3] = assay: Compound was evaluated for the biological activity (pressure) in anesthetized cats at a dose of 40 ug/kg

NC1CCCc2c(ccc(O)c2O)C1 (stereo not drawn)
Pressure (Felis catus [1]): 15 mmHg | Pressure (Felis catus [2]): 38 mmHg | Pressure (Felis catus [3]): 70 mmHg
